In test [1] the target is T1, 5-Lipoxygenase enzyme (10,000 g supernatant from RBL-1 cells) (Rattus norvegicus, UniProt P12527).
T1 construct: 5-Lipoxygenase enzyme was prepared as a 10,000 g supernatant from RBL-1 cells; endogenous in cells; host or cells: RBL-1 cells (10,000 g supernatant, method of Jakschik)
T1 sequence (P12527 1-673): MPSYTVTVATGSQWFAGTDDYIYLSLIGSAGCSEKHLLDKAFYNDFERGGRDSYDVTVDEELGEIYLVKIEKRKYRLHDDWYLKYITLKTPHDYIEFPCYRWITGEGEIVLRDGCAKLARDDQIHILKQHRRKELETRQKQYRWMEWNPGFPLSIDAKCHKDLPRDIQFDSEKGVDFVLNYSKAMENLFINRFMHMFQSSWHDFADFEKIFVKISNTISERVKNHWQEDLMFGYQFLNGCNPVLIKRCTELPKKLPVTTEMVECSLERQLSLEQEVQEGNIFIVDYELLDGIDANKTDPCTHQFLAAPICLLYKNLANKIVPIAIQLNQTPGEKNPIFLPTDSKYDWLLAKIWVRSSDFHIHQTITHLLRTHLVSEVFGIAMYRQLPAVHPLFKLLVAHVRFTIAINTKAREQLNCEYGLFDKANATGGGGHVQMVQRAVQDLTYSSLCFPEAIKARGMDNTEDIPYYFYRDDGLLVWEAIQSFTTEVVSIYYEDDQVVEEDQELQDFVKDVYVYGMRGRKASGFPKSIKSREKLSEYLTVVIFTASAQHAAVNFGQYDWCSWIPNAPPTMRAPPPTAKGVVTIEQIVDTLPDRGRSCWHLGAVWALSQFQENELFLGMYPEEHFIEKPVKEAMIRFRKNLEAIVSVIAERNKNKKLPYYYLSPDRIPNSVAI
The experiment in a line: Inhibition of 5-Lipoxygenase Activity (Method B). In kind it is biochemical. The following applies: decrease in formation of 5-HETE and 5,12-diHETE relative to control. As to the method: Inhibition of 5-Lipoxygenase Activity
5-Lipoxygenase enzyme was prepared as a 10,000 g supernatant from RBL-1 cells by the method of Jakschik [Jakschik, B.A., F.F. Sun, L.M. Lee, and M.M.Steinhoff, 1980, Biochem. Biophys. Res. Comm. 95, 103]. The 10,000 g supernatant was diluted with homogenization buffer to the equivalent of 1.5 - 2.5 x 10^7 cells. ml-^1 and made 2mM with respect to CaCl2. Aliquots of 0.5 ml were then dispensed into tubes, and incubated at 29 °C with 5 µl ethanol or compound in ethanol at the desired concentration for 2 min. Then [1-^14C] arachidonic acid was added in buffer to give a final concentration of 6.3 uM and 0.2 µCi per incubation, and the reaction continued at 29 °C for 2 min. The reaction was terminated by adding 1 ml of acetone and cooling on ice, 0.5 ml of ice-cold saline and 10 µl of 2N formic acid were added, and the mixture was extracted with 2 x 2 ml of chloroform. The extract was stored under N2at -20°C until analysis by chromatography. Activity was measured as the percentage of total radioactivity found in 5-HETE and 5,12-diHETE, and inhibition calculated as the decrease in formation of the sum of these two species in compound-treated incubates relative to control incubates.

Test [2] concerns Phospholipase A2 (Naja naja venom, Sigma). Kind of test: Inhibition of Phospholipase A2 Activity (Method A). In kind it is biochemical. The following applies: inhibition of arachidonic acid release, tested in triplicate. The procedure: Inhibition of Phospholipase A2 Activity
Enzyme: Phospholipase A2 (Naja naja venom, Sigma)
Substrate: Diarachidoyl phosphatidylcholine (10.6mg) and α-1-palmitoyl-2-[1-^14C]-arachidonyl phosphatidylcholine (0.5uCi; 52.9mCi/mMol) in 28ml of TrisHCl buffer=100mM, pH 8.7) ultrasonicated.
Assay: Incubations containing PLA2 (0.125ng) in Tris HC1 buffer (lOOmM, pH 8.7) and CaCl2 (4mM) were prepared on ice. Immediately prior to incubation at 37°C 5µl of DMSO or compound in DMSO were added. The final assay volume was 1.75ml. After 10 minutes at 37 °C 750µl of substrate was added, with mixing, and the incubation continued for a further 15 min. The reaction was terminated by placing on ice and adding 5ml CHCl3:MeOH (2:lv/v).
The lower organic phase was removed and stored under N2 at-20 °C until analysed. Analysis was by 1-dimensional t.l.c. on polygram Sil G sheets in the solvent system petroleum ether: diethyl ether: acetic acid (60:40:1,v/v). In this system the phospholipid remains at the origin and the arachidonic acid has an approximate Rf. value of 0.36. The areas of interest were cut from the plates and radioactivity determined by liquid scintillation counting.
All compounds were tested in triplicate.
Calculation: The radioactivity of the arachidonic acid is expressed as a percentage of the total dpm cut from the plate. The percentage inhibition of arachidonic acid release compared to that of the control was calculated after correction for the level of spontaneous release where: • x = % corrected mean arachidonic acid release in control • y = % corrected arachidionic acid release after inhibition • % inhibition [formula]
The mean of the triplicate samples was calculated giving z + standard deviation%.

Molecules are shown by their SMILES.

Broadly, the inhibition is the percentage by which the read-out fell short of the control. Molecule `CCOC(=O)c1c[nH]nc1NC(=O)C=Cc1ccc(O)c(O)c1` [Example 9, Ethyl 3-[N-(3,4-dihydroxycinnamol)amino]pyrazole-4-carboxylate] gave an inhibition at 20 µM in test [1] of 97%. Besides, the “Phospholipase A2 Inhibition at 20µM (%)” value in test [2] is given as 71%. The like results for `COC(=O)c1sccc1NC(=O)C=Cc1ccc(OC)c(OC)c1` [Example 6, Methyl-3[N-(3,4-dimethoxycinnamoyl)amino]thiophene-2-carboxylate] were, in that order, 81% and 31%.

In turn, `COc1ccc(C=CC(=O)Nc2ccsc2C(=O)O)cc1OC` [Example 15, 3-[N-(3,4-Dimethoxycinnamoyl)amino]thiophene-2-carboxylic acid] displayed an inhibition at 20 µM in test [1] of 0%. Moreover, in test [2], the “Phospholipase A2 Inhibition at 20µM (%)” value is 10%. The like results for `COC(=O)c1sccc1NC(=O)C=Cc1ccc(O)c(O)c1` [Example 7] were, in that order, 93% and 84%. The like results for `O=C(C=Cc1ccc(O)c(O)c1)Nc1ccsc1C(=O)O` [Example 12] were, in that order, 88% and 36%. The like results for `COc1cc(C=CC(=O)Nc2ccsc2C(=O)O)ccc1O` [Example 13, 3-[N-(4-hydroxy-3-methoxycinnamoyl)-amino]thiophene-2-carboxylic acid.] were, in that order, 64% and 26%. Turning to `COC(=O)c1sccc1NC(=O)C=Cc1ccc(O)c(OC)c1` [Example 8], in test [1], 20 µM produced 98% inhibition. Besides, the “Phospholipase A2 Inhibition at 20µM (%)” value in test [2] was determined as 26%. In the case of `O=C(C=Cc1ccc(O)c(O)c1)Nc1ncccc1C(=O)O` [Example 14, 2-[N-(3,4-dihydroxycinnamoyl)amino]pyridine 3-carboxylic acid], in test [1], testing at 20 µM gave an inhibition of 67%. `CCOC(=O)c1c(NC(=O)C=Cc2ccc(O)c(O)c2)sc2c1CCCC2` [Example 11, Ethyl-2[N-3,4-dihydroxycinnamoyl)amino]4,5,6,7-tetrahydrobenzo [bj thiophene-3-carboxylate] came in with an inhibition at 20 µM in test [1] of 91%. Also, the “Phospholipase A2 Inhibition at 20µM (%)” value in test [2] is on record as 92%. The molecule `COC(=O)c1sc(-c2ccc(Cl)cc2)cc1NC(=O)C=Cc1ccc(OC(C)=O)c(OC(C)=O)c1` [Example 16, Methyl-5-(4-chlorophenyl)-3-(3,4-diacetoxycinnamoyl-amino)-thiophene-2-carboxylate] showed an inhibition at 20 µM in test [1] of 60%. For the molecule `CCOC(=O)c1cccnc1NC(=O)C=Cc1ccc(O)c(O)c1` [Example 10, Ethyl-2 [N-(3,4-dihydroxycinnamoyl)amino]pyridine-3-carboxylate], the inhibition at 20 µM in test [1] was determined as 95%. For the same molecule, the “Phospholipase A2 Inhibition at 20µM (%)” value in test [2] was determined as 10%.
